According to ChEMBL document CHEMBL5143511, “Positioning of an unprecedented 1,5-oxaza spiroquinone scaffold into SMYD2 inhibitors in epigenetic space” (Eur J Med Chem, 2022):
Values belong to the molecule of their own block, whether it stands above or below them.

What was measured:
[1] = target: T1, N-lysine methyltransferase SMYD2 (Homo sapiens, UniProt Q9NRG4); test: Inhibition of SMYD2 (unknown origin) using 3H-SAM as substrate incubated for 1 hr by filter binding method
[2] = target: T1, N-lysine methyltransferase SMYD2; test: Inhibition of SMYD2 (unknown origin) assessed as residual activity at 10 uM using 3H-SAM as substrate incubated for 1 hr by filter binding method relative to control
[3] = system: HEK293; test: Induction of apoptosis in HEK293 cells assessed as increase in cleaved PARP level incubated for 24 hrs by immunoblot analysis; type: toxicity, cell-based; conditions: human, hek293, 24 h, DDE = dose-dependent effect, dose 0.0195-10 µM
[4] = system: Ca-Ski; test: cells; type: functional, cell-based; conditions: Homo sapiens, 72 h
Description: Antiproliferative activity against human Ca-Ski cells assessed as inhibition of cell growth incubated for 72 hrs by CellTiter-Glo luminescent cell viability assay

[5] = system: MDA-MB-231; test: Antiproliferative activity against human MDA-MB-231 cells assessed as inhibition of cell growth incubated for 72 hrs by CellTiter-Glo luminescent cell viability assay; type: functional, cell-based; conditions: MDA-MB-231, 72 h
[6] = system: HEK293; test: Induction of apoptosis in HEK293 cells assessed as increase in cleaved PARP level at 0.0195 to 10 uM incubated for 24 hrs by immunoblot analysis; type: toxicity, cell-based; conditions: human, hek293, 24 h, dose 0.0195-10 µM
[7] = AUCinfinity in ICR mouse at 40 mg/kg, ip administered as vehicle 1 as DMSO/Cremophor EL/ PEG400/ DDW formulation measured upto 1440 mins by LC-MS/MS analysis; type: ADME, organism-based; set-up: dose 40 mg/kg, time < 1440 min, route ip; conditions: in vivo
[8] = Cmax in ICR mouse at 40 mg/kg, ip administered as vehicle 2 as corn oil suspension measured upto 1440 mins by LC-MS/MS analysis; type: ADME, organism-based; set-up: time < 1440 min, dose 40 mg/kg, route ip; conditions: in vivo
[9] = AUClast in ICR mouse at 40 mg/kg, ip administered as vehicle 2 as corn oil suspension measured upto 1440 mins by LC-MS/MS analysis; type: ADME, organism-based; set-up: dose 40 mg/kg, time < 1440 min, route ip; conditions: in vivo
[10] = system: MDA-MB-453; test: Antitumor activity against human MDA-MB-453 cells xenografted in BALB/c nude mouse assessed as reduction in tumor volume at 40 mg/kg, ip measured every 3 days for 8 days by caliper method (reference value: 152+/- 11 mm3); type: functional; conditions: time 8 day
[11] = system: MDA-MB-453; test: Antitumor activity against human MDA-MB-453 cells xenografted in ip dosed BALB/c nude mouse assessed as reduction in tumor growth measured after 15 days; type: functional; conditions: MDA-MB-453, 360 h, time 15 day
[12] = Drug uptake in ICR mouse plasma assessed as time required to reach higher drug level at 40 mg/kg, ip administered as vehicle 1 as DMSO/Cremophor EL/ PEG400/ DDW formulation measured upto 1440 mins by HPLC analysis; type: ADME, organism-based
[13] = Drug metabolism in liver microsomes (unknown origin) assessed as M-78 metabolite formation by LC-MS/MS analysis; type: ADME, Microsome
[14] = Cmax in ICR mouse at 40 mg/kg, ip administered as vehicle 1 as DMSO/Cremophor EL/ PEG400/ DDW formulation measured upto 1440 mins by LC-MS/MS analysis; type: ADME, organism-based; set-up: dose 40 mg/kg, time < 1440 min, route ip; conditions: in vivo
[15] = Toxicity in […] xenografted with human MDA-MB-453 cells assessed as body weight loss at 40 mg/kg, ip administered as DMSO/Cremophor EL/ PEG400/ DDW formulation and measured after 4 days; type: organism-based; conditions: in vivo, 96 h, time 4 day
[16] = system: MDA-MB-453; test: Antitumor activity against human MDA-MB-453 cells xenografted in BALB/c nude mouse assessed as reduction in tumor weight at 40 mg/kg, ip measured after 15 days (reference value: 0.038 +/- 0.02 g); type: functional; conditions: time 15 day
[17] = system: MDA-MB-453; test: Antitumor activity against human MDA-MB-453 cells xenografted in BALB/c nude mouse assessed as reduction in tumor volume at 40 mg/kg, ip measured every 3 days for 11 days by caliper method (reference value: 168 +/- 16 mm3); type: functional; conditions: time 11 day
[18] = Drug metabolism in liver microsomes (unknown origin) assessed as M+18 metabolite formation by LC-MS/MS analysis; type: ADME, Microsome
[19] = system: MDA-MB-453; test: Antitumor activity against human MDA-MB-453 cells xenografted in BALB/c nude mouse assessed as reduction in tumor volume at 40 mg/kg, ip measured on day 1 by caliper method (reference value: 137 +/- 10 mm3); type: functional; conditions: time 1 day
[20] = system: MDA-MB-453; test: Antitumor activity against human MDA-MB-453 cells xenografted in BALB/c nude mouse assessed as reduction in tumor volume at 40 mg/kg, ip measured on day 4 by caliper method (reference value: 145 +/- 11 mm3); type: functional; conditions: time 4 day
[21] = Drug concentration in ICR mouse plasma at 40 mg/kg, ip administered as vehicle 2 as corn oil suspension measured upto 1440 mins by HPLC analysis; type: ADME, organism-based
[22] = Drug metabolism in liver microsomes (unknown origin) assessed as M-115 metabolite formation by LC-MS/MS analysis; type: ADME, Microsome
[23] = system: MDA-MB-453; test: Antitumor activity against human MDA-MB-453 cells xenografted in BALB/c nude mouse assessed as reduction in tumor volume at 40 mg/kg, ip measured every 3 days for 15 days by caliper method (reference value: 177 +/- 19 mm3); type: functional; conditions: time 15 day
[24] = system: MDA-MB-453; test: Antitumor activity against human MDA-MB-453 cells xenografted in BALB/c nude mouse assessed as tumor growth inhibition rate at 40 mg/kg, ip measured after 15 days relative to control; type: functional; conditions: MDA-MB-453, 360 h, time 15 day, read-out: TGI
[25] = system: MDA-MB-453; test: cells; type: functional, cell-based; conditions: Homo sapiens, MDA-MB-453, 72 h
Description: Antiproliferative activity against human MDA-MB-453 cells assessed as inhibition of cell growth incubated for 72 hrs by CellTiter-Glo luminescent cell viability assay

[26] = Tmax in ICR mouse at 40 mg/kg, ip administered as vehicle 2 as corn oil suspension measured upto 1440 mins by LC-MS/MS analysis; type: ADME, organism-based; conditions: in vivo
[27] = Terminal half life in ICR mouse at 40 mg/kg, ip administered as vehicle 1 as DMSO/Cremophor EL/ PEG400/ DDW formulation measured upto 1440 mins by LC-MS/MS analysis; type: ADME, organism-based; conditions: in vivo, read-out: beta t1/2
[28] = Terminal half life in ICR mouse at 40 mg/kg, ip administered as vehicle 2 as corn oil suspension measured upto 1440 mins by LC-MS/MS analysis; type: ADME, organism-based; conditions: in vivo, read-out: beta t1/2
[29] = Drug metabolism in liver microsomes (unknown origin) assessed as M-56 metabolite formation by LC-MS/MS analysis; type: ADME, Microsome
[30] = Metabolic stability in mouse liver microsomes assessed as parent compound remaining at 5 uM preincubated for 5 mins with NADPH followed by compound addition and measured after 15 mins by LC-MS/MS analysis; type: ADME, Microsome; conditions: read-out: Stability
[31] = Drug metabolism in liver microsomes (unknown origin) assessed as M-254 metabolite formation by LC-MS/MS analysis; type: ADME, Microsome
[32] = AUCinfinity in ICR mouse at 40 mg/kg, ip administered as vehicle 2 as corn oil suspension measured upto 1440 mins by LC-MS/MS analysis; type: ADME, organism-based; set-up: time < 1440 min, dose 40 mg/kg, route ip; conditions: in vivo
[33] = Tmax in ICR mouse at 40 mg/kg, ip administered as vehicle 1 as DMSO/Cremophor EL/ PEG400/ DDW formulation measured upto 1440 mins by LC-MS/MS analysis; type: ADME, organism-based; conditions: in vivo
[34] = AUClast in ICR mouse at 40 mg/kg, ip administered as vehicle 1 as DMSO/Cremophor EL/ PEG400/ DDW formulation measured upto 1440 mins by LC-MS/MS analysis; type: ADME, organism-based; set-up: time < 1440 min, dose 40 mg/kg, route ip; conditions: in vivo

T1 sequence (Q9NRG4 whole entry): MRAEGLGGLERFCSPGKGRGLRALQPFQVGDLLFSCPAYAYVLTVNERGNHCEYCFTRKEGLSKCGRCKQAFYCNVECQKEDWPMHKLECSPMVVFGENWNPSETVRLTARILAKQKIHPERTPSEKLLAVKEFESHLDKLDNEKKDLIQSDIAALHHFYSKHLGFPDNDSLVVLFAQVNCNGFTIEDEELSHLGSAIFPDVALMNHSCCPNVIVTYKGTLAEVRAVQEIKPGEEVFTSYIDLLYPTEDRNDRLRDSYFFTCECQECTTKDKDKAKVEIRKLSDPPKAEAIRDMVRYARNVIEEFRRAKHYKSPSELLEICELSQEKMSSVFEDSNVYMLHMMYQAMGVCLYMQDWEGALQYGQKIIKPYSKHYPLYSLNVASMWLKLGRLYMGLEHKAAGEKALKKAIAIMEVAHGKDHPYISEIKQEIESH

Structure (SMILES): N#Cc1cccc(-n2cc(CC3COC4(C=CC(=O)C=C4)N(c4ccccc4)C3=O)nn2)c1 (stereo unspecified)
IC50 [1]: > 30000 nM

Structure (SMILES): CC(C)N1C(=O)C(Cc2ccc([N+](=O)[O-])cc2)COC12C=CC(=O)C=C2 (stereo unspecified)
IC50 [1]: > 20000 nM | Activity [2]: 66.7%

Structure (SMILES): O=C1COc2c(CCNCCN(C(=O)CCNCCc3ccc(Cl)c(Cl)c3)C3CCCCC3)ccc(O)c2N1
Activity [6]: Non-Toxic | IC50 [5]: 13100 nM

Structure (SMILES): CN[C@@H]1C[C@H]2O[C@@](C)([C@@H]1OC)n1c3ccccc3c3c4c(c5c6ccccc6n2c5c31)C(=O)NC4 [STAUROSPORINE]
IC50 [5]: 0.858 nM

Structure (SMILES): C=CCC1COC2(C=CC(=O)C=C2)N(C(C)C)C1=O (stereo unspecified)
IC50 [1]: > 20000 nM | Activity [2]: 101%

Structure (SMILES): CN1C(=O)C(CCO[Si](C)(C)C(C)(C)C)COC12C=CC(=O)C=C2 (stereo unspecified)
IC50 [1]: > 30000 nM

Structure (SMILES): CN1C(=O)C(CCO)COC12C=CC(=O)C=C2 (stereo unspecified)
IC50 [1]: > 30000 nM

Structure (SMILES): CC(C)N1C(=O)C(Cc2ccc(F)cc2)COC12C=CC(=O)C=C2 (stereo unspecified)
IC50 [1]: > 20000 nM | Activity [2]: 36%

Continued, in another order:

IC50 [1]: > 20000 nM | Activity [2]: 41.4%
Structure (SMILES): CC(C)N1C(=O)C(Cc2ccc(Cl)cc2)COC12C=CC(=O)C=C2 (stereo unspecified)

IC50 [1]: 2390 nM | IC50 [4]: 733 nM | IC50 [5]: 1030 nM | Activity [2]: 6.72%
Structure (SMILES): CC(C)N1C(=O)C(Cc2cc(C(F)(F)F)cc(C(F)(F)F)c2)COC12C=CC(=O)C=C2 (stereo unspecified)
Activity [3]: Dde

IC50 [1]: > 20000 nM | Activity [2]: 27.8%
Structure (SMILES): CC(C)N1C(=O)C(Cc2cc(C(F)(F)F)ccc2Cl)COC12C=CC(=O)C=C2 (stereo unspecified)

IC50 [1]: 3 nM
Structure (SMILES): O=C1COc2c([C@@H](O)CNCCN(C(=O)CCNCCc3ccc(Cl)c(Cl)c3)C3CCCCC3)ccc(O)c2N1

IC50 [1]: 2310 nM | Activity [2]: 16.1%
Structure (SMILES): CN1C(=O)C(CCNc2ccc(-c3cccs3)cc2)COC12C=CC(=O)C=C2 (stereo unspecified)

AUC(0-inf) [7]: 6050 ng·h/mL | Cmax [8]: 301 ng/mL | AUC(0-t) at 24 h [9]: 1560 ng·h/mL | IC50 [1]: 679 nM | IC50 [4]: 180 nM | Tmax [12]: 8 h | Drug metabolism [13]: Metabolite_Detected | Cmax [14]: 1400 ng/mL | Drug metabolism [18]: Metabolite_Detected | concentration at 24 h [21]: 279 ng/mL | Drug metabolism [22]: Metabolite_Detected | IC50 [25]: 11.9 nM | Tmax [26]: 1.17 h | half-life [27]: 4.83 h | half-life [28]: 15.9 h | Drug metabolism [29]: Metabolite_Detected | IC50 [5]: 85.4 nM | remaining at 0.25 h, 5 µM [30]: 1.22% | Drug metabolism [31]: Metabolite_Detected | AUC(0-inf) [32]: 3130 ng·h/mL | Tmax [33]: 0.25 h | AUC(0-t) at 24 h [34]: 5810 ng·h/mL
Structure (SMILES): CN1C(=O)C(CCO[Si](c2ccccc2)(c2ccccc2)C(C)(C)C)COC12C=CC(=O)C=C2 (stereo unspecified)
Activity [3]: Dde | Activity [10]: 105 mm3 | ED50 [11]: < 40 mg/kg | Activity [15]: Toxic | Activity [16]: 0.009 g | Activity [17]: 87 mm3 | Activity [19]: 136 mm3 | Activity [20]: 126 mm3 | Activity [23]: 67 mm3 | inhibition in vivo at 40 mg/kg [24]: 77.7%

IC50 [1]: 678 nM
Structure (SMILES): CC(C)[Si](OCCC1COC2(C=CC(=O)C=C2)N(C)C1=O)(C(C)C)C(C)C (stereo unspecified)

IC50 [1]: 2130 nM | IC50 [4]: 785 nM | IC50 [5]: 667 nM | Activity [2]: 6.94%
Structure (SMILES): CN1C(=O)C(CCNc2cc(C(F)(F)F)cc(C(F)(F)F)c2)COC12C=CC(=O)C=C2 (stereo unspecified)

IC50 [1]: 399 nM
Structure (SMILES): CC(C)N1C(=O)C(CCO[Si](c2ccccc2)(c2ccccc2)C(C)(C)C)COC12C=CC(=O)C=C2 (stereo unspecified)

IC50 [1]: 3060 nM | IC50 [4]: 927 nM | IC50 [5]: 1080 nM | Activity [2]: 19.9%
Structure (SMILES): CN1C(=O)C(C/C=N/n2c3ccccc3c3ccccc32)COC12C=CC(=O)C=C2 (stereo unspecified)
